Here are results for 5 molecules from ChEMBL document CHEMBL3044583, “Mechanisms and Issues Relating to the Use of D1-like Dopamine Receptor Agonists for Age-related Illnesses: Parkinson?s Disease and Memory and Cognition” (Med Chem Res, 2004).

Data set [1] deals with D(1A) dopamine receptor (Homo sapiens) (UniProt P21728). The data set can be described thus: Binding affinity to dopamine D1 receptor (unknown origin).
The target of data set [2] is D(1A) dopamine receptor (Rattus norvegicus) (UniProt P18901).
D(1A) dopamine receptor (Rattus norvegicus), sequence (P18901 whole entry): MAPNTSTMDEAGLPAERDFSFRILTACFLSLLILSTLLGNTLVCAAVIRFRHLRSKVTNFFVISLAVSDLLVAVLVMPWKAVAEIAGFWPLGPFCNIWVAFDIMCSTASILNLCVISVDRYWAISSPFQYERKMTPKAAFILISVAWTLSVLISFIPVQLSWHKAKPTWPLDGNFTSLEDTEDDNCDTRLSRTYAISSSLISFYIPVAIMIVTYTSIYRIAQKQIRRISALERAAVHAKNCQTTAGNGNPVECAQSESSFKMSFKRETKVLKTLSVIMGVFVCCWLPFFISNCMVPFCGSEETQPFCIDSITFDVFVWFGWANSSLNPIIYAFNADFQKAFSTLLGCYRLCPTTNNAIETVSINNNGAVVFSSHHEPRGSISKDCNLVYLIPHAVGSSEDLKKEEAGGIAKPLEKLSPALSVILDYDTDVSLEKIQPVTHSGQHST
Description: Binding affinity to dopamine D1 receptor in Rattus norvegicus (rat) brain
Data set [3] in a line: Half life in Rattus norvegicus (rat) plasma. The format is ADME, cell-free.

D(1A) dopamine receptor (Homo sapiens), sequence (P21728 whole entry): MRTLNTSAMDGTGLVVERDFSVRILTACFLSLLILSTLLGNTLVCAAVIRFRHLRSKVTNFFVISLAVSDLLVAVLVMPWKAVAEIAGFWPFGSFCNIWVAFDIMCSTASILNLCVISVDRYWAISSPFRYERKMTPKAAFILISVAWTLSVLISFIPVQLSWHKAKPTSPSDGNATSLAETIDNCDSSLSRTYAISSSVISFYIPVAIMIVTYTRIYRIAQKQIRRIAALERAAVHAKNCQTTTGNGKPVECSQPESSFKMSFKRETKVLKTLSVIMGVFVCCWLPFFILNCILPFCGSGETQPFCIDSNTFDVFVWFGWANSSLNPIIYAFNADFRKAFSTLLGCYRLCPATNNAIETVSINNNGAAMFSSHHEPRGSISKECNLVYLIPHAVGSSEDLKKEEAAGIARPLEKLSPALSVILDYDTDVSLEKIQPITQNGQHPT

The molecule `NC[C@@H]1O[C@H](C23CC4CC(CC(C4)C2)C3)Cc2c1ccc(O)c2O` came in with a K0.5 in data set [1] of 1 nM.

`Oc1cc2c(cc1O)[C@H]1c3ccccc3CN[C@@H]1CC2`: the K0.5 in data set [2] worked out at 5 nM.

Molecule `CCCc1cc2c(s1)CN[C@@H]1CCc3cc(O)c(O)cc3[C@@H]21` (relative stereo) came in with a K0.5 in data set [1] of 1 nM.

Molecule `NC[C@@H]1O[C@H](c2ccccc2)Cc2c1ccc(O)c2O` (relative stereo) gave a K0.5 in data set [1] of 1 nM.

In general, half-life refers to the time needed for the level to fall by half in the phase considered. High values mean slow loss, low ones fast loss. Regarding `CCCc1cc2c(s1)CN[C@@H]1CCc3cc(OC(C)=O)c(OC(C)=O)cc3[C@@H]21.Cl` (relative stereo) [ADROGOLIDE HYDROCHLORIDE], the half-life in data set [3] was 1 min.
